Legend:
Format in all cases: in vivo
kochia (Bassia scoparia) [1] = test: Test A postemergence application, visual injury rating 0-100; conditions: 10 days
How it was run: (§1)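 Directed preemergence spray onto seeded soil or postemergence spray onto 2-10 cm plants (loam plus sand); compound carried in surfactant-containing non-phytotoxic solvent. Injury rated by eye after 10 d greenhouse growth; 0 = no effect, 100 = complete control.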

[2] = system: green foxtail (Setaria viridis); test: as above; conditions: 10 days
How it was run: as §1

[3] = system: ragweed (common ragweed, Ambrosia artemisiifolia); test: as above; conditions: 10 days
How it was run: as §1

[4] = system: palmer (palmer amaranth, palmer pigweed, Amaranthus palmeri); test: as above; conditions: 10 days
How it was run: as §1

[5] = system: horseweed (Erigeron canadensis); test: as above; conditions: 10 days
How it was run: as §1

[6] = system: ryegrass, Italian (italian ryegrass, Lolium multiflorum); test: as above; conditions: 10 days
How it was run: as §1

[7] = system: galium (catchweed bedstraw, Galium aparine); test: as above; conditions: 10 days
How it was run: as §1

[8] = system: wheat (Triticum aestivum); test: as above; conditions: 10 days
How it was run: as §1

soybean (Glycine max) [9] = test: as above; conditions: 10 days
How it was run: as §1

[10] = system: blackgrass (Alopecurus myosuroides); test: as above; conditions: 10 days
How it was run: as §1

[11] = system: barnyardgrass (Echinochloa crus-galli); test: as above; conditions: 10 days
How it was run: as §1

corn (Zea mays) [12] = test: as above; conditions: 10 days
How it was run: as §1

[13] = system: oat, wild (wild oat, Avena fatua); test: as above; conditions: 10 days
How it was run: as §1

kochia (Bassia scoparia) [14] = test: Test A preemergence soil spray, visual injury rating 0-100; conditions: 10 days, 0 = no effect, 100 = complete control
How it was run: as §1

[15] = system: green foxtail (Setaria viridis); test: as above; conditions: 10 days, 0 = no effect, 100 = complete control
How it was run: as §1

[16] = system: ragweed (common ragweed, Ambrosia artemisiifolia); test: as above; conditions: 10 days, 0 = no effect, 100 = complete control
How it was run: as §1

[17] = system: palmer (palmer amaranth, palmer pigweed, Amaranthus palmeri); test: as above; conditions: 10 days, 0 = no effect, 100 = complete control
How it was run: as §1

[18] = system: ryegrass, Italian (italian ryegrass, Lolium multiflorum); test: as above; conditions: 10 days, 0 = no effect, 100 = complete control
How it was run: as §1

[19] = system: wheat (Triticum aestivum); test: as above; conditions: 10 days, 0 = no effect, 100 = complete control
How it was run: as §1

soybean (Glycine max) [20] = test: as above; conditions: 10 days, 0 = no effect, 100 = complete control
How it was run: as §1

[21] = system: blackgrass (Alopecurus myosuroides); test: as above; conditions: 10 days, 0 = no effect, 100 = complete control
How it was run: as §1

[22] = system: barnyardgrass (Echinochloa crus-galli); test: as above; conditions: 10 days, 0 = no effect, 100 = complete control
How it was run: as §1

corn (Zea mays) [23] = test: as above; conditions: 10 days, 0 = no effect, 100 = complete control
How it was run: as §1

[24] = system: oat, wild (wild oat, Avena fatua); test: as above; conditions: 10 days, 0 = no effect, 100 = complete control
How it was run: as §1

[25] = system: ducksalad (Heteranthera limosa); test: Test B flooded paddy test, visual plant response rating 0-100; conditions: 250 g ai/ha, Flood, applied to paddy water, evaluated after 13 days
How it was run: (§2)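 2-leaf plants; flood 3 cm over soil; compound dosed into paddy water; depth kept constant; greenhouse 13 d; visual scoring vs controls. Dash = no result.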

[26] = system: sedge, umbrella (small-flower umbrella sedge, Cyperus difformis); test: as above; conditions: 250 g ai/ha, Flood, applied to paddy water, evaluated after 13 days
How it was run: as §2

rice (Oryza sativa) = test: as above; conditions: 250 g ai/ha, Flood, applied to paddy water, evaluated after 13 days
How it was run: as §2

[27] = system: barnyardgrass (Echinochloa crusgalli); test: as above; conditions: 250 g ai/ha, Flood, applied to paddy water, evaluated after 13 days
How it was run: as §2

[28] = 31 g ai/ha, postemergence, 0 = no effect, 100 = complete control
[29] = Postemergence, 125 g ai/ha, 0 is no effect, 100 is complete control

CC(C)COC(=O)C1C=CC(NC(=O)C2(C)CN(c3cc(F)cc(F)c3)C(=O)O2)C1 (stereo not shown) [Compound 56]
Kochia plant response rating (0-100) (kochia (Bassia scoparia) [1]; [28]): 70
Kochia plant response rating (0 to 100 scale) (kochia (Bassia scoparia) [1]; [29]): 80
Foxtail, Green plant response rating (0-100) [2, 28]: 30
Foxtail, Green plant response rating (0 to 100 scale) [2, 29]: 90
Ragweed plant response rating (0-100) [3, 28]: 50
Ragweed plant response rating (0 to 100 scale) [3, 29]: 70
Amaranth, Palmer plant response rating (0-100) [4, 28]: 90
Amaranth, Palmer / Pigweed, Palmer plant response rating (0 to 100 scale) [4, 29]: 80
Horseweed plant response rating (0-100) [5, 28]: 20
Horseweed plant response rating (0 to 100 scale) [5, 29]: 80
Ryegrass, Italian plant response rating (0-100) [6, 28]: 90
Ryegrass, Italian plant response rating (0 to 100 scale) [6, 29]: 90
Galium plant response rating (0-100) [7, 28]: 80
Galium plant response rating (0 to 100 scale) [7, 29]: 80
Wheat plant response rating (0-100) [8, 28]: 90
Wheat plant response rating (0 to 100 scale) [8, 29]: 90
Soybean plant response rating (0-100) (soybean (Glycine max) [9]; [28]): 70
Soybean plant response rating (0 to 100 scale) (soybean (Glycine max) [9]; [29]): 70
Blackgrass plant response rating (0-100) [10, 28]: 60
Blackgrass plant response rating (0 to 100 scale) [10, 29]: 90
Barnyardgrass plant response rating (0-100) [11, 28]: 90
Barnyardgrass plant response rating (0 to 100 scale) [11, 29]: 100
Corn plant response rating (0-100) (corn (Zea mays) [12]; [28]): 90
Corn plant response rating (0 to 100 scale) (corn (Zea mays) [12]; [29]): 100
Oat, Wild plant response rating (0-100) [13, 28]: 90
Oat, Wild plant response rating (0 to 100 scale) [13, 29]: 90
Kochia plant response rating (0-100) (kochia (Bassia scoparia) [14]; 31 g ai/ha): 0
Kochia plant response rating (0 to 100 scale) (kochia (Bassia scoparia) [14]; 125 g ai/ha): 90
Foxtail, Green plant response rating (0-100) ([15]; 31 g ai/ha): 40
Foxtail, Green plant response rating (0 to 100 scale) ([15]; 125 g ai/ha): 90
Ragweed plant response rating (0-100) ([16]; 31 g ai/ha): 0
Ragweed plant response rating (0 to 100 scale) ([16]; 125 g ai/ha): 0
Amaranth, Palmer plant response rating (0-100) ([17]; 31 g ai/ha): 0
Amaranth, Palmer plant response rating (0 to 100 scale) ([17]; 125 g ai/ha): 70
Ryegrass, Italian plant response rating (0-100) ([18]; 31 g ai/ha): 80
Ryegrass, Italian plant response rating (0 to 100 scale) ([18]; 125 g ai/ha): 90
Wheat plant response rating (0-100) ([19]; 31 g ai/ha): 90
Wheat plant response rating (0 to 100 scale) ([19]; 125 g ai/ha): 100
Soybean plant response rating (0-100) (soybean (Glycine max) [20]; 31 g ai/ha): 30
Soybean plant response rating (0 to 100 scale) (soybean (Glycine max) [20]; 125 g ai/ha): 80
Blackgrass plant response rating (0-100) ([21]; 31 g ai/ha): 30
Blackgrass plant response rating (0 to 100 scale) ([21]; 125 g ai/ha): 90
Barnyardgrass plant response rating (0-100) ([22]; 31 g ai/ha): 30
Barnyardgrass plant response rating (0 to 100 scale) ([22]; 125 g ai/ha): 100
Corn plant response rating (0-100) (corn (Zea mays) [23]; 31 g ai/ha): 10
Corn plant response rating (0 to 100 scale) (corn (Zea mays) [23]; 125 g ai/ha): 90
Oat, Wild plant response rating (0-100) ([24]; 31 g ai/ha): 90
Oat, Wild plant response rating (0 to 100 scale) ([24]; 125 g ai/ha): 90
Plant response rating, Ducksalad (0 to 100 scale, 0 is no effect and 100 is complete control) [25]: 90
Plant response rating, Sedge, Umbrella (0 to 100 scale, 0 is no effect and 100 is complete control) [26]: 50
Plant response rating, Rice (0 to 100 scale, 0 is no effect and 100 is complete control) (rice (Oryza sativa)): 15
Plant response rating, Barnyardgrass (0 to 100 scale, 0 is no effect and 100 is complete control) [27]: 95

From patent US20260285850A1, “SUBSTITUTED OXAZOLIDINONES AND IMIDAZOLINONES AS HERBICIDES” (FMC CORPORATION, priority 2023, published 2026)
